Source: patent US11485987B2, “Methods for inducing bioorthogonal reactivity” (University of Delaware, priority 2015, dated 2022)

Assays:
[1] = target: T1, F41A APEX2 (Glycine max, UniProt Q43758, A134P/E112K/K14D/W41A); assay: Oxidation of DHT by F41A APEX2, UV-Vis initial rates and kinetic parameters; assay type: biochemical; details: for Initial rate of oxidation of DHT by F41A APEX2 + SOD: SOD 1 μM, PBS, 100 μM EDTA, first 100 s
T1 sequence (Q43758 1-250 A134P/E112K/K14D/W41A): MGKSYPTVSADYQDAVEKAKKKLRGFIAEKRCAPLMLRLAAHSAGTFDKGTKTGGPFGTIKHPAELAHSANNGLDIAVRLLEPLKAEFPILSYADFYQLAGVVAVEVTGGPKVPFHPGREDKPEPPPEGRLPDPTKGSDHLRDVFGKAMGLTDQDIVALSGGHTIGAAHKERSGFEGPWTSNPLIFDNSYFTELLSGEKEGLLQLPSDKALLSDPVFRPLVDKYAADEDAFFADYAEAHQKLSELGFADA
Method: UV-Vis and fluorescence measurements were conducted in quartz cuvettes. All reactions were conducted in phosphate buffered saline (PBS) containing 100 μM EDTA with a pH=7.4. The PBS was prepared by adding 25 mM phosphate salts (Na2HPO4 and NaH2PO4), 100 mM NaCl, 100 μM EDTA to DI water. EDTA was added to quench free metals that can oxidize DHT. The buffer was pH adjusted to 7.4 using 1 mM HCl and 1 mM NaOH. UV experiments were stirred at 25° C. in a temperature-controlled cuvette holder of the spectrophotometer. Solutions of 15 or 16 were prepared from methanol stock solutions.
SOD (1 μM) was added to PBS containing 100 μM EDTA. 15 or 16 (60 μM) was added from methanol stock solutions. After 10s, APEX2 (SEQ ID NO:1) or F41A APEX2 (275 nM) was dosed in and oxidation was monitored at 325 nm for 15 and 285 nm for 16 at 60s intervals.
The initial rate of oxidation was calculated from the first 100 seconds after APEX2 (SEQ ID NO:1) or F41A APEX2 was added ([…]). In the assays where SOD was added, SOD (1 μM) was added to PBS containing 100 μM EDTA and 15 or 16 was dosed in. 10 seconds later, APEX2 (SEQ ID NO:1) or F41A APEX2 ([…]) was added and the rate of oxidation was calculated from the first 100 seconds after APEX2 (SEQ ID NO:1) or F41A APEX2 ([…]) addition. The initial rate of oxidation was adjusted to background oxidation of DHT in PBS with 100 μM EDTA. Kinetic parameters (Table 2) were determined using GraphPad's Prism 6 software from the data presented below (Table 3-4).

[2] = tested on: A19V D222G APEX2; assay: Oxidation of 15 by APEX2 variant A19V D222G APEX2; assay type: biochemical; details: 15 40 μM, enzyme 275 nM, PBS with EDTA
Method: 15 (40 μM) from methanol stock solutions was added to PBS containing […] EDTA. After 10s, APEX2 (275 nM) was dosed in and oxidation was monitored at 325 nm for 15. The procedure stated above was repeated for F41A APEX2 and A19V D222G APEX2. (FIG. 17).

[3] = target: T2, horseradish peroxidase (HRP) (Armoracia rusticana, UniProt P00433); assay: Horseradish peroxidase (HRP) catalyzed oxidation of DHTz to tetrazine; assay type: biochemical; details: [3a] 8 μM; HRP 15 nM; first 10 seconds
T2 sequence (P00433 31-338): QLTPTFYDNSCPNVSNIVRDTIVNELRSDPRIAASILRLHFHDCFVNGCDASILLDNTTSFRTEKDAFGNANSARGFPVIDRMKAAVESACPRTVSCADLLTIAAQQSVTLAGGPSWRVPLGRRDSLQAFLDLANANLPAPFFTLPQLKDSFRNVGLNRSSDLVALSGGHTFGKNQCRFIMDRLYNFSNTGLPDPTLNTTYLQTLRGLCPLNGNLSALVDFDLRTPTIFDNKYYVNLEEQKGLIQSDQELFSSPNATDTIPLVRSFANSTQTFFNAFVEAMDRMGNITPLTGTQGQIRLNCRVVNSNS

[4] = Methylene blue catalyzed photooxidation of DHTz to tetrazine
Method: Upon addition of horseradish peroxidase (15 nM) the UV-vis spectrum was monitored every 10 seconds. With 50% conversion after 100 seconds, complete conversion of 3a to 4a is observed after 600 seconds, as evidenced by the decrease in the absorption at 292 nm and increase at 325 nm with an isosbestic point at 303 nm. Similar spectral changes are observed when 3a is electrochemically oxidized to 4a in aqueous solution, or when the oxidation of 3a to 4a is photocatalyzed by methylene blue. […] Methylene blue was considered a particularly attractive sensitizer due to its clinical relevance, low molecular weight, low toxicity, high solubility, and an absorption spectrum (λmax 665 nm) that extends to the near IR. Further, methylene blue has previously been explored for applications in photodynamic therapy based on oxidation of indole-3-acetic acid. Rose bengal (λmax 550 nm), used in a range of biomedical applications, was also identified as an excellent sensitizer. […] […] […] The mechanism of photooxidation more likely involves electron transfer and is the subject of ongoing study.
Thus, a PBS solution of 3a was sparged with 98% nitrogen and 2% air, such that the final O2 concentration was 5 μM.
Oxidation of 3a to 4a was monitored by recording absorbance at 325 nm every 30 seconds. Cuvettes for these experiments were washed with EDTA/PBS as described in the General Considerations (section 2.1). […]

Row | SMILES | Initial rate of oxidation of DHT by F41A APEX2 + SOD ([1]; DHT 5 μM) | Initial rate of oxidation of DHT by F41A APEX2 + SOD ([1]; DHT 10 μM) | Initial rate of oxidation of DHT by F41A APEX2 + SOD ([1]; DHT 15 μM) | Initial rate of oxidation of DHT by F41A APEX2 + SOD ([1]; DHT 20 μM) | Initial rate of oxidation of DHT by F41A APEX2 + SOD ([1]; DHT 25 μM) | Initial rate of oxidation of DHT by F41A APEX2 + SOD ([1]; DHT 30 μM) | Initial rate of oxidation of DHT by F41A APEX2 + SOD ([1]; DHT 40 μM) | Initial rate of oxidation of DHT by F41A APEX2 + SOD ([1]; DHT 50 μM) | Initial rate of oxidation of DHT by F41A APEX2 + SOD ([1]; DHT 60 μM) | Initial rate of oxidation of DHT by F41A APEX2 + SOD ([1]; DHT 70 μM) | Initial rate of oxidation of DHT by F41A APEX2 + SOD ([1]; DHT 75 μM) | Initial rate of oxidation of DHT by F41A APEX2 + SOD ([1]; DHT 85 μM) | factor of increase of rate of catalysis versus APEX2 (SEQ ID NO:1) ([1]; F41A APEX2 mutant with SOD) | oxidation by A19V D222G APEX2 (tetrazine formation at 325 nm) [2] | Rate of HRP Oxidation of 3a [3] | time to quantitative conversion to tetrazine 4a ([4]; 3a 21 μM, methylene blue 4 μM, 660 nm LED 9.1 mW/cm^2, pH 7.4 PBS) | time to complete conversion of 3a to 4a ([4]; hypoxia model, O2 5 μM, methylene blue 7 μM, 660 nm) | conversion of 3a to 4a ([4]; methylene blue 4 μM, ambient light, 2 h)
1 | O=C(O)CCCC(=O)Nc1ccc(C2=NNC(c3ccccn3)=NN2)nc1 [compound 15] | 1.080 +/− 0.113 ×10^−8 M/s | 2.625 +/− 0.177 ×10^−8 M/s | 2.549 +/− 0.145 ×10^−8 M/s | 3.629 +/− 0.413 ×10^−8 M/s | 3.863 +/− 0.163 ×10^−8 M/s | 5.019 +/− 0.089 ×10^−8 M/s | 5.758 +/− 0.855 ×10^−8 M/s | 5.978 +/− 0.304 ×10^−8 M/s | 7.688 +/− 0.698 ×10^−8 M/s | 7.685 +/− 0.869 ×10^−8 M/s | 10.059 +/− 0.594 ×10^−8 M/s | 12.425 +/− 0.046 ×10^−8 M/s | 7 | can oxidize 15 |  |  |  | 
2 | O=C(O)CCC(=O)Nc1ccc(C2=NNC(c3ccccn3)=NN2)nc1 [3a, 4-oxo-4-((6-(6-(pyridin-2-yl)-1,4-dihydro-1,2,4,5-tetrazin-3-yl)pyridin-3-yl)amino)butanoic Acid] |  |  |  |  |  |  |  |  |  |  |  |  |  |  | 3.4e-08 M/s | ≤ 200 s | ≤ 30 min | 47%
